Article PMC2376334, “Penetration of capecitabine and its metabolites into malignant and healthy tissues of patients with advanced breast cancer” (British Journal of Cancer, 2003)

Columns and labels:
[1] = Plasma pharmacokinetics of free drug after oral capecitabine in breast cancer patients; format: in vivo, human; settings: for Cmax / Tmax / half-life / AUC(0-t) / concentration at 1 day: human, plasma; for AUC(0-t): read-out: AUC0−5 h; for concentration at 1 day: one patient, day 1, slow absorption kinetics, read-out: plasma concentrations; for plasma concentrations: same patient, end of the first cycle (days 12–14)
Procedure: In parallel, a plastic cannula was inserted into an antecubital vein to monitor blood concentrations of the study drug at 30-min intervals. A total of 10 capecitabine-naive patients were studied after the first morning dose of day 1. Three of them were monitored once again between days 12 and 14 of cycle 1.
(§1) After thawing, 100 μl plasma were centrifuged through Centrisart-C4 filter units with a nominal molecular weight cutoff=10 000 (Sartorius, Germany) for 30 min at 37°C to separate free drug from protein-bound drug. […] Capecitabine, DFCR, DFUR (supplied by Roche, Basel, Switzerland), and FU (Sigma, St Louis, MO, USA) were evaluated in 200 mM tetraborate buffer (pH=9.5) monitoring the absorbance at three different wavelengths (capecitabine: 297 nm, DFCR: 282 nm, DFUR and FU: 268 nm). […] The intra-assay coefficient of variation for this method ranged from 3.4 to 6.9% with an interassay coefficient of variation ranging from 6.7 to 10.4%.

[2] = Microdialysis pharmacokinetics in the interstitium of a cutaneous metastasis (tumour)
Text: (§2) Patients were in a supine position throughout the study period. Commercially available microdialysis probes (CMA 10®, CMA, Stockholm, Sweden) were inserted into a suitable cutaneous metastasis. A second microdialysis probe was inserted horizontally into the subcutaneous connective tissue of one thigh. The surface of the disinfected skin was punctured according to a previously described procedure ([Müller et al, 1995]). The position of the probes in the metastasis was established by ultrasound scanning. Subsequently, the microdialysis system was connected and perfused with Ringer's solution at a flow rate of 1.5 μl min^−1 by a microinfusion-pump (Precidor®; Infors-AG, Basel, Switzerland). After a 30 min baseline sampling period, probe calibration for capecitabine and FU was performed for a period of 30 min according to a retrodialysis procedure ([Stahle et al, 1991]). After a wash-out period of 30 min, the study drug was administered in the scheduled dose. Sampling was continued at 30-min intervals up to 300 min.
(§3) Sample collection and analysis of microdialysates and blood samples by capillary electrophoresis were performed according to a validated method with minor modifications ([Mader et al, 1998]). After thawing, 100 μl plasma were centrifuged through Centrisart-C4 filter units with a nominal molecular weight cutoff=10 000 (Sartorius, Germany) for 30 min at 37°C to separate free drug from protein-bound drug. […] Capecitabine, DFCR, DFUR (supplied by Roche, Basel, Switzerland), and FU (Sigma, St Louis, MO, USA) were evaluated in 200 mM tetraborate buffer (pH=9.5) monitoring the absorbance at three different wavelengths (capecitabine: 297 nm, DFCR: 282 nm, DFUR and FU: 268 nm).
(§4) To obtain absolute interstitial concentrations from dialysate concentrations, microdialysis probes were calibrated for in vivo recovery rates according to the retrodialysis method ([Müller et al, 1995],[1997]). The principle of this method relies on the assumption that the diffusion process is quantitatively equal in both directions across the semipermeable membrane. Therefore, the study drug is added to the perfusate and the disappearance rate through the membrane is taken as the in vivo recovery. The in vivo recovery value is calculated as: […]
(§5) Absolute interstitial fluid concentrations of free drug were calculated from dialysate concentrations by the following equation: […]
(§6) The following pharmacokinetic parameters were determined: AUC calculated using the trapezoidal rule, maximum concentration (cmax), time to maximum concentration (tmax), and elimination half-life (t1/2). For statistical calculations, pharmacokinetic parameters derived from different compartments were compared using the paired Wilcoxon test.

[3] = Microdialysis pharmacokinetics in the interstitium of subcutaneous connective tissue; settings: human; for AUC(0-t) / Cmax / Tmax / half-life: po, 1250 mg
Text: as §2, §3, §4, §5, §6

[4] = In vitro plasma protein binding (ultrafiltration); format: in vitro ADME
Procedure: as §1
The plasma protein binding of DFCR, DFUR, and FU was <4% up to 100 μg substance (ml plasma)^−1. In contrast, the plasma protein binding of capecitabine was determined to be 60% by in vitro binding experiments (data not shown).

[5] = design: method as in Mackean et al, 1998; settings: most slowly eliminating compound; ref Mackean et al, 1998; cited from earlier work
[6] = after capecitabine, cited from earlier work
[7] = po, free drug, median, n=10, 1250 mg capecitabine m^−2 orally, day 1, read-out: cmax
[8] = po, median, n=10, 1250 mg capecitabine m^−2 orally
[9] = po, median, n=10, 1250 mg capecitabine m^−2 orally, read-out: tmax
[10] = median of single-patient ratios, n=10
[11] = oral, 1250 mg m^−2, Ratio of AUC0−5 h s.c. Tissue/plasma, median of single-patient ratios, n=10
[12] = up to 100 μg substance (ml plasma)^−1
[13] = tissue biopsies, colorectal tumours, ref Schüller et al, 2000

Cmax [1, 7] [ng/mL] | half-life [1, 8] [min] | AUC(0-t) [1, 8] [ng·h/mL] | Tmax [1, 9] [h] | Kp ([2]; human, oral, 1250 mg m^−2) | Cmax ([2]; human, po, 1250 mg) [ng/mL] | Tmax ([2]; human, po, 1250 mg) [h] | half-life ([2]; human, po, 1250 mg) [min] | Ratio of AUC0−5 h Tumour/s.c. tissue [2, 10] | Kp [3, 11] | AUC(0-t) [3] [ng·h/mL] | Cmax [3] [ng/mL] | Tmax [3] [h] | half-life [3] [min] | concentration at 1 day ([1]; oral, 1250 mg m^−2) [ng/mL] | plasma concentrations [1] | fraction unbound [4, 12] | Compound | other results
2340 | 30 | 2360 | 1.75 | 1.76 | 2660 | 2.5 | 30 | 1.11 | 1.31 | 3160 | 2700 | 2.25 | 35.4 |  |  |  | CCCCCOC(=O)Nc1nc(=O)n([C@@H]2O[C@H](C)[C@@H](O)[C@H]2O)cc1F [Capecitabine] | Cmax ([1]; oral, 1250 mg m^−2, capecitabine-naive patients, range between patients, read-out: range of cmax): 640 to 15400 ng/mL; Tmax ([1]; oral, 1250 mg m^−2, capecitabine-naive patients, range between patients, read-out: range of tmax): 1 to 3 h; Kp ([3]; oral, 1250 mg m^−2, ratio AUCconnective tissue/AUCplasma, subgroup of four patients): > 2; fraction unbound ([4]; plasma, in vitro binding experiments (data not shown)): 0.4
6530 | 51.6 | 11300 | 1.75 | 0.67 | 4220 | 2.5 | 52.2 | 1.12 | 0.67 | 8400 | 4370 | 2.5 | 45.6 | ≤ 4000 | about 10 μg ml^−1 | > 0.96 | C[C@H]1O[C@@H](n2cc(F)c(N)nc2=O)[C@H](O)[C@@H]1O [DFCR, 5′-deoxy-5-fluorocytidine] | plasma half-life [5]: 1.22 h
3650 | 48 | 6420 | 2 |  |  |  |  |  |  |  |  |  |  | ≤ 4000 | about 10 μg ml^−1 | > 0.96 | C[C@H]1O[C@@H](n2cc(F)c(=O)[nH]c2=O)[C@H](O)[C@@H]1O [DFUR, 5′-deoxy-5-fluorouridine] | Kp ([2]; human, in vivo): 0.53; Ratio of AUC0−5 h Tumour/s.c. tissue ([2]; human, in vivo): 1.20; AUC0−5 h ([2]; human, in vivo, po, 1250 mg): 3.35 μg ml^ 1 h; Kp ([3]; in vivo, Ratio of AUC0−5 h s.c. Tissue/plasma): 0.44; AUC(0-t) ([3]; in vivo): 2750 ng·h/mL
250 |  | 290 | 2.5 | 0.66 | 260 | 3 |  | 0.66 | 1.53 | 360 | 330 | 2 |  |  |  | > 0.96 | O=c1[nH]cc(F)c(=O)[nH]1 [FU, 5-fluorouracil, reference compound] | FU levels in plasma ([1]; rarely exceeding, oral capecitabine regimen): ≤ 0.5 µg/mL; detection in tumour interstitium ([2]; one patient, day 1): not observed; mean tumour/plasma ratio ([6]; patients with colorectal tumours, ref Schüller et al (2000)): 21; median ratio tumour/healthy tissue of FU concentration [6, 13]: 2.9; median tumour/plasma ratio of FU concentration [6, 13]: 16.6
